Values of other authors in patent publication US8030014B2, “Detecting agent and therapeutic agent for highly malignant breast cancer” (priority 2005, dated 2011).

Tested on: breast cancer
Conditions: paclitaxel used in addition to adriamycin plus cyclophosphamide (AC); postoperative auxiliary chemotherapy

CC(=O)O[C@H]1C(=O)[C@@]2(C)[C@H]([C@H](OC(=O)c3ccccc3)[C@]3(O)C[C@H](OC(=O)[C@H](O)[C@@H](NC(=O)c4ccccc4)c4ccccc4)C(C)=C1C3(C)C)[C@]1(OC(C)=O)CO[C@@H]1C[C@@H]2O [paclitaxel]
lowering of annual mortality rate over AC therapy alone: 26%
